“And” between values parts separate entries of the source, which are not always exact repeats. Identical values can stand only once.
Settings: Fluid (supercritical or subcritical phases), Buoyancy - hydrostatic balance with magnetic suspension - two sinkers

CCC [propane]
Settings	mass density
265 K, 2141.2 kPa	542.504 kg/m3
265 K, 2141.4 kPa	542.503 kg/m3
265 K, 2144 kPa	542.507 kg/m3 and 542.508 kg/m3
265 K, 2144.3 kPa	542.51 kg/m3
265 K, 2144.8 kPa	542.509 kg/m3
265 K, 2145 kPa	542.509 kg/m3
265 K, 3759.4 kPa	545.171 kg/m3
265 K, 3760 kPa	545.17 kg/m3
265 K, 3760.5 kPa	545.17 kg/m3
265 K, 3766.3 kPa	545.182 kg/m3
265 K, 3771.8 kPa	545.194 kg/m3
265 K, 4142.6 kPa	545.789 kg/m3
265 K, 4145 kPa	545.794 kg/m3
265 K, 4149.1 kPa	545.797 kg/m3
265 K, 4150.8 kPa	545.802 kg/m3
265 K, 8329.8 kPa	552.117 kg/m3
265 K, 8330.5 kPa	552.12 kg/m3
265 K, 8330.7 kPa	552.117 kg/m3
265 K, 8331.9 kPa	552.121 kg/m3
265 K, 8332.3 kPa	552.121 kg/m3
265 K, 12135 kPa	557.342 kg/m3
265 K, 12136 kPa	557.343 kg/m3
265 K, 12137 kPa	557.343 kg/m3
265 K, 16242 kPa	562.533 kg/m3
265 K, 16243 kPa	562.535 kg/m3
265 K, 16245 kPa	562.537 kg/m3
265 K, 16246 kPa	562.537 kg/m3
265 K, 20184 kPa	567.153 kg/m3 and 567.155 kg/m3
265 K, 20189 kPa	567.157 kg/m3
265 K, 20190 kPa	567.159 kg/m3
265 K, 20191 kPa	567.16 kg/m3
265 K, 24029 kPa	571.368 kg/m3
265 K, 24030 kPa	571.371 kg/m3
265 K, 24031 kPa	571.373 kg/m3 and 571.369 kg/m3
265 K, 30007 kPa	577.453 kg/m3 and 577.455 kg/m3 and 577.457 kg/m3
265 K, 30010 kPa	577.458 kg/m3 and 577.459 kg/m3
265 K, 34915 kPa	582.091 kg/m3
265 K, 34916 kPa	582.091 kg/m3 and 582.092 kg/m3 and 582.09 kg/m3
280 K, 2010.8 kPa	522.313 kg/m3
280 K, 2011 kPa	522.314 kg/m3
280 K, 2012.2 kPa	522.319 kg/m3
280 K, 2013 kPa	522.322 kg/m3
280 K, 2016.3 kPa	522.324 kg/m3
280 K, 2020 kPa	522.336 kg/m3
280 K, 2020.8 kPa	522.337 kg/m3
280 K, 2021.2 kPa	522.338 kg/m3
280 K, 2021.3 kPa	522.335 kg/m3
280 K, 2021.4 kPa	522.337 kg/m3
280 K, 4077.8 kPa	526.538 kg/m3
280 K, 4078.2 kPa	526.542 kg/m3
280 K, 4078.3 kPa	526.539 kg/m3
280 K, 4078.4 kPa	526.539 kg/m3
280 K, 8037.8 kPa	533.834 kg/m3
280 K, 8038.9 kPa	533.835 kg/m3
280 K, 8039.6 kPa	533.833 kg/m3
280 K, 8040 kPa	533.836 kg/m3
280 K, 8040.4 kPa	533.836 kg/m3
280 K, 12164 kPa	540.567 kg/m3
280 K, 12165 kPa	540.568 kg/m3
280 K, 12166 kPa	540.568 kg/m3
280 K, 12167 kPa	540.57 kg/m3
280 K, 16052 kPa	546.301 kg/m3 and 546.302 kg/m3
280 K, 16053 kPa	546.299 kg/m3 and 546.301 kg/m3
280 K, 16054 kPa	546.301 kg/m3
280 K, 20169 kPa	551.856 kg/m3
280 K, 20170 kPa	551.857 kg/m3
280 K, 20171 kPa	551.857 kg/m3
280 K, 20173 kPa	551.86 kg/m3
280 K, 24174 kPa	556.843 kg/m3
280 K, 24175 kPa	556.845 kg/m3
280 K, 24178 kPa	556.848 kg/m3
280 K, 29900 kPa	563.396 kg/m3 and 563.395 kg/m3
280 K, 29902 kPa	563.397 kg/m3 and 563.398 kg/m3
280 K, 35491 kPa	569.254 kg/m3
280 K, 35492 kPa	569.255 kg/m3
280 K, 35494 kPa	569.255 kg/m3
280 K, 35496 kPa	569.259 kg/m3
300 K, 2095.9 kPa	492.916 kg/m3
300 K, 2096.6 kPa	492.92 kg/m3
300 K, 2096.7 kPa	492.918 kg/m3
300 K, 2096.8 kPa	492.918 kg/m3
300 K, 2097 kPa	492.917 kg/m3
300 K, 4036.5 kPa	498.494 kg/m3
300 K, 4037.2 kPa	498.496 kg/m3
300 K, 4037.3 kPa	498.493 kg/m3
300 K, 4037.4 kPa	498.494 kg/m3
300 K, 8037.7 kPa	508.391 kg/m3
300 K, 8038 kPa	508.393 kg/m3
300 K, 8038.1 kPa	508.394 kg/m3
300 K, 8038.4 kPa	508.391 kg/m3
300 K, 8038.7 kPa	508.393 kg/m3
300 K, 12024 kPa	516.758 kg/m3
300 K, 12025 kPa	516.758 kg/m3 and 516.759 kg/m3
300 K, 16033 kPa	524.122 kg/m3 and 524.123 kg/m3
300 K, 16035 kPa	524.125 kg/m3
300 K, 16037 kPa	524.128 kg/m3
300 K, 20366 kPa	531.21 kg/m3
300 K, 20369 kPa	531.216 kg/m3
300 K, 20370 kPa	531.214 kg/m3
300 K, 23908 kPa	536.474 kg/m3 and 536.475 kg/m3
300 K, 23909 kPa	536.476 kg/m3
300 K, 23911 kPa	536.479 kg/m3
300 K, 29891 kPa	544.528 kg/m3
300 K, 29892 kPa	544.529 kg/m3 and 544.528 kg/m3
300 K, 35152 kPa	550.916 kg/m3
300 K, 35153 kPa	550.918 kg/m3 and 550.916 kg/m3
300 K, 35154 kPa	550.917 kg/m3
310 K, 261.67 kPa	4.6501 kg/m3
310 K, 261.68 kPa	4.6501 kg/m3 and 4.6502 kg/m3
310 K, 261.69 kPa	4.6502 kg/m3
310 K, 460.64 kPa	8.455 kg/m3 and 8.4548 kg/m3 and 8.4549 kg/m3
310 K, 760.19 kPa	14.7402 kg/m3
310 K, 760.2 kPa	14.7403 kg/m3
310 K, 760.25 kPa	14.7415 kg/m3
310 K, 760.28 kPa	14.7419 kg/m3 and 14.7421 kg/m3

Reference: the NIST ThermoML archive (doi:10.1021/je900124n)
